Publication PMC6979384, “Characterization of the plant homeodomain (PHD) reader family for their histone tail interactions” (Epigenetics & Chromatin, 2020)

Assays:
Assay in all cases: Histone peptide microarray
Assay type in all cases: binding, human
Conditions in all cases: histone peptide array
[1] = system: KDM5A (1)
Outline: (§1)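 GST-PHD reader, 0.5 μM, probed on 293-peptide histone array (single/combinatorial PTMs); optimized array protocol; signal = mean ± SD, n = 4.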

[2] = system: BPTF (PB)
Outline: as §1

[3] = system: SP140L
Outline: as §1

[4] = system: ING4
Outline: as §1

[5] = system: RAG2
Outline: as §1

[6] = system: KDM7A
Outline: as §1

[7] = system: ING1
Outline: as §1

[8] = system: DIDO1
Outline: as §1

[9] = system: PHRF1 (RP)
Outline: as §1

[10] = system: KDM5B (1)
Outline: as §1

[11] = system: PHF23
Outline: as §1

[12] = system: KDM4C (TTP)
Outline: as §1

[13] = system: MORC3 (CW)
Outline: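 Each reader, produced as a GST fusion and purified, was tested at 0.5 μM on synthetic histone peptides (293 in total) carrying single or combinatorial marks. Intensities averaged over four replicates.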

[14] = system: ING5
Outline: as §1

[15] = system: PHF13
Outline: as §1

[16] = system: ING2
Outline: as §1

[17] = system: ING3
Outline: as §1

[18] = system: CHD5 (PPCC)
Outline: as §1

[19] = system: KDM5A (3)
Outline: as §1

[20] = system: TRIM66 (PB)
Outline: as §1

[21] = system: TAF3
Outline: as §1

[22] = system: PHF8
Outline: as §1

[23] = system: AIRE (PP)
Outline: as §1

[24] = system: KDM5B (3)
Outline: as §1

[25] = system: PHF21A
Outline: as §1

[26] = system: CHD5 (PCC)
Outline: as §1

[27] = system: MLL5
Outline: as §1

[28] = system: CHD4 (PPCC)
Outline: as §1

[29] = system: DPF2 (PPC2W2)
Outline: as §1

[30] = system: PHF2
Outline: as §1

[31] = system: BAZ2B
Outline: as §1

[32] = sheet "Array Heatmap", GST-tagged reader, total n = 4

For H3R2me2s + K4me2: H3 1-20, the “Array Heatmap signal, KDM5A (1)” value ([1]; GST-tagged KDM5A (1), arrays performed twice, n of 4) was 0.4761, the “Array Heatmap signal, BPTF (PB)” value ([2]; GST-tagged BPTF (PB = PHD + Bromodomain), arrays performed twice, n of 4) was 0.3673 and the “Array Heatmap signal, SP140L” value ([3]; GST-tagged SP140L, arrays performed twice, n of 4) was 0.3393. For the same substance, the “Array Heatmap signal, ING4” value ([4]; GST-tagged ING4, arrays performed twice, n of 4) was 0.4666, the “Array Heatmap signal, RAG2” value ([5]; GST-tagged RAG2, arrays performed twice, n of 4) was 0.4992 and the “Array Heatmap signal, KDM7A” value ([6]; GST-tagged KDM7A, arrays performed twice, n of 4) was 0.4256. For the same substance, the “Array Heatmap signal, ING1” value ([7]; GST-tagged ING1, arrays performed twice, n of 4) was 0.5374, the “Array Heatmap signal, DIDO1” value ([8]; GST-tagged DIDO1, arrays performed twice, n of 4) was 0.7352 and the “Array Heatmap signal, PHRF1 (RP)” value ([9]; GST-tagged PHRF1 (RP), arrays performed twice, n of 4) was 0.4714. For the same substance, the “Array Heatmap signal, KDM5B (1)” value ([10]; GST-tagged KDM5B (1), arrays performed twice, n of 4) was 0.7544, the “Array Heatmap signal, PHF23” value ([11]; GST-tagged PHF23, arrays performed twice, n of 4) was 0.6298 and the “Array Heatmap signal, KDM4C (TTP)” value ([12]; GST-tagged KDM4C (TTP = Tandem Tudor domain + PHD), arrays performed twice, n of 4) was 0.5629. The “Array Heatmap signal, MORC3 (CW)” value ([13]; GST-tagged MORC3 (CW = CW-type Zn-finger), arrays performed twice, n of 4) was 0.7987, the “Array Heatmap signal, ING5” value ([14]; GST-tagged ING5, arrays performed twice, n of 4) was 0.3606 and the “Array Heatmap signal, PHF13” value ([15]; GST-tagged PHF13, arrays performed twice, n of 4) was 0.6897. The “Array Heatmap signal, ING2” value ([16]; GST-tagged ING2, arrays performed twice, n of 4) was 0.6563, the “Array Heatmap signal, ING3” value ([17]; GST-tagged ING3, arrays performed twice, n of 4) was 0.5515 and the “Array Heatmap signal, CHD5 (PPCC)” value ([18]; GST-tagged CHD5 (PPCC = Dual PHD + Dual Chromodomain), arrays performed twice, n of 4) was 0.5636. For the same substance, the “Array Heatmap signal, KDM5A (3)” value ([19]; GST-tagged KDM5A (3), arrays performed twice, n of 4) was 0.7167, the “Array Heatmap signal, TRIM66 (PB)” value ([20]; GST-tagged TRIM66 (PB = PHD + Bromodomain), arrays performed twice, n of 4) was 0.6465 and the “Array Heatmap signal, TAF3” value ([21]; GST-tagged TAF3, arrays performed twice, n of 4) was 0.4. The “Array Heatmap signal, PHF8” value ([22]; GST-tagged PHF8, arrays performed twice, n of 4) was 0.5813, the “Array Heatmap signal, AIRE (PP)” value ([23]; GST-tagged AIRE (PP), arrays performed twice, n of 4) was 0.4691 and the “Array Heatmap signal, KDM5B (3)” value ([24]; GST-tagged KDM5B (3), arrays performed twice, n of 4) was 0.725. The “Array Heatmap signal, PHF21A” value ([25]; GST-tagged PHF21A, arrays performed twice, n of 4) was 0.4639, the “Array Heatmap signal, CHD5 (PCC)” value ([26]; GST-tagged CHD5 (PCC = PHD + Dual Chromodomain), arrays performed twice, n of 4) was 0.8074 and the “Array Heatmap signal, MLL5” value ([27]; GST-tagged MLL5, arrays performed twice, n of 4) was 0.5794. The “Array Heatmap signal, CHD4 (PPCC)” value ([28]; GST-tagged CHD4 (PPCC = Dual PHD + Dual Chromodomain), arrays performed twice, n of 4) was 0.5835, the “Array Heatmap signal, DPF2 (PPC2W2)” value ([29]; GST-tagged DPF2 (PPC2W2 = Dual PHD + C2W2-type Zn-finger), arrays performed twice, n of 4) was 0.6255 and the “Array Heatmap signal, PHF2” value ([30]; GST-tagged PHF2, arrays performed twice, n of 4) was 0.597. For the same substance, the “Array Heatmap signal, BAZ2B” value ([31]; GST-tagged BAZ2B, arrays performed twice, n of 4) was 0.454.
For “H3R2me2s + K4me3 + K9ac + K14ac + K18ac: H3 1-20”, the “Array Heatmap signal, KDM5A (1)” value [1, 32] was 0.3527, the “Array Heatmap signal, BPTF (PB)” value [2, 32] was 0.2994 and the “Array Heatmap signal, SP140L” value [3, 32] was 0.3075. The “Array Heatmap signal, ING4” value [4, 32] was 0.356, the “Array Heatmap signal, RAG2” value [5, 32] was 0.309 and the “Array Heatmap signal, KDM7A” value [6, 32] was 0.2957. The “Array Heatmap signal, ING1” value [7, 32] was 0.5042, the “Array Heatmap signal, DIDO1” value [8, 32] was 0.6935 and the “Array Heatmap signal, PHRF1 (RP)” value [9, 32] was 0.3639. For the same substance, the “Array Heatmap signal, KDM5B (1)” value [10, 32] was 0.5889, the “Array Heatmap signal, PHF23” value [11, 32] was 0.5367 and the “Array Heatmap signal, KDM4C (TTP)” value [12, 32] was 0.3487. For the same substance, the “Array Heatmap signal, MORC3 (CW)” value [13, 32] was 0.4658, the “Array Heatmap signal, ING5” value [14, 32] was 0.2654 and the “Array Heatmap signal, PHF13” value [15, 32] was 0.4921. For the same substance, the “Array Heatmap signal, ING2” value [16, 32] was 0.6168, the “Array Heatmap signal, ING3” value [17, 32] was 0.3864 and the “Array Heatmap signal, CHD5 (PPCC)” value [18, 32] was 0.4157. The “Array Heatmap signal, KDM5A (3)” value [19, 32] was 0.5269, the “Array Heatmap signal, TRIM66 (PB)” value [20, 32] was 0.4734 and the “Array Heatmap signal, TAF3” value [21, 32] was 0.2641. The “Array Heatmap signal, PHF8” value [22, 32] was 0.402, the “Array Heatmap signal, AIRE (PP)” value [23, 32] was 0.3152 and the “Array Heatmap signal, KDM5B (3)” value [24, 32] was 0.4309. For the same substance, the “Array Heatmap signal, PHF21A” value [25, 32] was 0.377, the “Array Heatmap signal, CHD5 (PCC)” value [26, 32] was 0.6375 and the “Array Heatmap signal, MLL5” value [27, 32] was 0.5797. The “Array Heatmap signal, CHD4 (PPCC)” value [28, 32] was 0.4966, the “Array Heatmap signal, DPF2 (PPC2W2)” value [29, 32] was 0.5621 and the “Array Heatmap signal, PHF2” value [30, 32] was 0.5721. The “Array Heatmap signal, BAZ2B” value [31, 32] was 0.3825.
H3R8me1 + K9me2: H3 1-20 was tested, and the “Array Heatmap signal, KDM5A (1)” value [1, 32] was 0.5283, the “Array Heatmap signal, BPTF (PB)” value [2, 32] was 0.4109 and the “Array Heatmap signal, SP140L” value [3, 32] was 0.3989. For the same substance, the “Array Heatmap signal, ING4” value [4, 32] was 0.5352, the “Array Heatmap signal, RAG2” value [5, 32] was 0.302 and the “Array Heatmap signal, KDM7A” value [6, 32] was 0.3959. For the same substance, the “Array Heatmap signal, ING1” value [7, 32] was 0.6213, the “Array Heatmap signal, DIDO1” value [8, 32] was 0.8013 and the “Array Heatmap signal, PHRF1 (RP)” value [9, 32] was 0.6787. For the same substance, the “Array Heatmap signal, KDM5B (1)” value [10, 32] was 0.696, the “Array Heatmap signal, PHF23” value [11, 32] was 0.6046 and the “Array Heatmap signal, KDM4C (TTP)” value [12, 32] was 0.5659. The “Array Heatmap signal, MORC3 (CW)” value [13, 32] was 0.4736, the “Array Heatmap signal, ING5” value [14, 32] was 0.4288 and the “Array Heatmap signal, PHF13” value [15, 32] was 0.7136. The “Array Heatmap signal, ING2” value [16, 32] was 0.6201, the “Array Heatmap signal, ING3” value [17, 32] was 0.5783 and the “Array Heatmap signal, CHD5 (PPCC)” value [18, 32] was 0.658. For the same substance, the “Array Heatmap signal, KDM5A (3)” value [19, 32] was 0.6031, the “Array Heatmap signal, TRIM66 (PB)” value [20, 32] was 0.6813 and the “Array Heatmap signal, TAF3” value [21, 32] was 0.3249. The “Array Heatmap signal, PHF8” value [22, 32] was 0.3836, the “Array Heatmap signal, AIRE (PP)” value [23, 32] was 0.4949 and the “Array Heatmap signal, KDM5B (3)” value [24, 32] was 0.5247. For the same substance, the “Array Heatmap signal, PHF21A” value [25, 32] was 0.4957, the “Array Heatmap signal, CHD5 (PCC)” value [26, 32] was 0.7992 and the “Array Heatmap signal, MLL5” value [27, 32] was 0.5733. The “Array Heatmap signal, CHD4 (PPCC)” value [28, 32] was 0.7009, the “Array Heatmap signal, DPF2 (PPC2W2)” value [29, 32] was 0.8023 and the “Array Heatmap signal, PHF2” value [30, 32] was 0.6657. The “Array Heatmap signal, BAZ2B” value [31, 32] was 0.525.
